Measured values from US12522590B2, “Brefeldin a derivatives, preparation method and use thereof” (OCEAN UNIVERSITY OF CHINA, priority 2019, dated 2026).
Values after ≈ are worked out from the molar mass of the structure shown. Read-outs that look alike come from different tables or passages of the source.

Tests used:
[1] = Solubility test (shake 37° C., 24 h, HPLC); type: physicochemical; conditions: x ± s; for solubility at 24 h: thermodynamic from solid
Description: The term “solubility” refers to the mass of solute dissolved when a solid substance reaches saturation state in 100 g solvent at a certain temperature. Solubility test refer to the following references: ZHU Shang-bin, et al. Preparation, characterization, and physicochemical properties of arbutin phospholipid complex[J]. Chinese Traditional and Herbal Drugs. 2020, 1-10.
Methods: Excess BFA and the compounds disclosed herein were added to 10 mL of three solvents, methanol, acetone and 5% DMSO+95% H2O, respectively, and shaken on a shaker at 37° C. at 100 r/min for 24 h. After 24 h, the samples were centrifuged at 15 000 r/min for 15 min to remove the undissolved compounds. The supernatant was filtered using a 0.45 μm membrane filter. The supernatant was appropriately diluted with methanol and contents of the compounds were determined by HPLC method to calculate the solubility.

[2] = test system: esophageal cancer cells Eca-109; test: Cell proliferation assay (CCK-8); type: cell-based, human; conditions: Eca-109, 72 h
Excerpt: (§1) CCK-8 method: The CCK-8 method is a highly sensitive, non-radioactive colorimetric assay for the determination of the number of viable cells in cell proliferation or cytotoxicity assays. The orange formazan dye produced by the bioreduction of CCK-8 by intracellular dehydrogenase is soluble in the cell culture medium, and the amount of formazan dye produced is proportional to the number of living cells. The kit used in this method is the tetrazolium salt-WST-8 (2-(2-methoxy-4-nitrophenyl)-3-(4-nitrophenyl)-5-(2,4-disulfophenyl)-2H-tetrazolium monosodium salt) developed by Dojindo Chemical Research Institute (Dojindo), which is capable of being reduced to a water-soluble formazan dye in the presence of the electronic carrier 1-Methoxy PMS.
(§2) Human cervical cancer cells Hela, pancreatic cancer cells PANC-1, esophageal cancer cells Eca-109, human leukemia cells K562, human lung cancer cells A549, human liver cancer cells HepG2, human gastric cancer cells MKN-45, human breast cancer cells MCF7 were cultured in DMEM medium containing 10% FBS (fetal bovine serum), 100 U/mL penicillin and 100 μg/ml streptomycin. Hepatocellular carcinoma cells Bel-7402 were cultured in RPMI-1640 medium containing 10% FBS (fetal bovine serum), 100 U/ml penicillin and 100 μg/ml streptomycin. All cells were placed in a cell culture incubator at 37° C. with 5% CO2. Cells fluid was changed every 3-5 days, and after 80% cell fusion, trypsin digestion and passaging were performed to keep the cells in good logarithmic growth phase.
(§3) All the samples to be tested were dissolved in DMSO.
(§4) Cells in logarithmic growth phase were inoculated in 96-well plates with 5000 cells/well respectively, and after 24 h of incubation, samples were added (final concentrations as shown in the table), and biplicate wells were set up for each sample. The amount of solvent of DMSO was not higher than 2‰. After 72 h, 10 μL of CCK-8 solution was added to each well and incubated for 1.5˜3 h at 37° C. The OD value at 450 nm was measured on an plate reader. Inhibition rate (%)=(1−[(OD450 dosed well−OD450 blank well)/(OD450 control well−OD450 blank well)])×100%
(§5) The fitted IC50 values were calculated using the log (inhibitor) vs. response—Variable slop analysis method in GraphPad Prism software.

[3] = test system: pancreatic cancer cells PANC-1; test: Cell proliferation assay (CCK-8); type: cell-based, human; conditions: PANC-1, 72 h
Excerpt: as §1, §2, §3, §4, §5

[4] = test system: human lung cancer cells A549; test: Cell proliferation assay (CCK-8); type: cell-based; conditions: A549, 72 h
Excerpt: as §1, §2, §3, §4, §5

[5] = test system: Human cervical cancer cells Hela; test: Cell proliferation assay (CCK-8); type: cell-based; conditions: 72 h
Excerpt: as §1, §2, §3, §4, §5

[6] = test system: human gastric cancer cells MKN-45; test: Cell proliferation assay (CCK-8); type: cell-based; conditions: MKN-45, 72 h
Excerpt: as §1, §2, §3, §4, §5

[7] = test system: human liver cancer cells HepG2; test: Cell proliferation assay (CCK-8); type: cell-based; conditions: HepG2, 72 h
Excerpt: as §1, §2, §3, §4, §5

[8] = test system: human breast cancer cells MCF7; test: Cell proliferation assay (CCK-8); type: cell-based; conditions: MCF7, 72 h
Excerpt: as §1, §2, §3, §4, §5

[9] = test system: human leukemia cells K562; test: Cell proliferation assay (CCK-8); type: cell-based; conditions: K562, 72 h
Excerpt: as §1, §2, §3, §4, §5

Kunming breed mice = test: Acute toxicity test, single intragastric administration; type: in vivo
Excerpt: Objective: Observation of toxic effects of compounds after a single intragastric administration (ig.) to mice
1) Agents: Compounds disclosed herein were formulated to a suitable concentration.
2) Animals: Kunming breed mice, weight 18-22 g, male.

[10] = Pharmacokinetic evaluation (plasma BFA by LC/MS/MS); type: in vivo, SD rats; conditions: iv
Description: SD rats were weighed after an overnight fasting of 15 hours and randomly grouped according to weights. The appropriate amount of the compound was accurately weighed, and a final volume of 5% DMSO, 10% Solutol, and 85% Saline was added and vortexed or sonicated to make a thorough mixing to provide a 4 mg/mL solution for intravenous administration (iv.). Venous blood was taken at the time points of 0, 0.083 (iv. group only), 0.25, 0.5, 1.0, 2.0, 5.0, 7.0 and 24 h, via jugular vein or other suitable means, with approximately 0.20 mL of each sample collected, anticoagulated with sodium heparin (with 6.25 μL of 200 mM DDVP/tube added), and placed on ice after collection. The plasma was separated by centrifugation within 2 hours (centrifugal force 6800 g, 6 min, 2-8° C.). The collected plasma samples were stored in a −70° C. refrigerator before analysis, and the remaining plasma samples after analysis were kept stored at −20° C. or −70° C. until LC/MS/MS analysis was performed. The accuracy of QC samples was evaluated while analyzing the samples, and more than 66% of the QC samples were required to have an accuracy between 80-120%. When plasma drug concentration-time curves were plotted, BLQ were recorded as 0. For the calculation of pharmacokinetic parameters, the concentration before dosing was counted as 0; BLQ before Cmax (including “No peak”) was counted as 0; BLQ after Cmax (including “No peak”) was not included in the calculation. Pharmacokinetic parameters such as AUC(0-t), T1/2, Cmax, Tmax and MRT were calculated according to the blood concentration data of BFA at different time points using WinNonlin.

[11] = aqueous with cosolvent or surfactant or cyclodextrin, 5% DMSO + 95% H2O, n = 3, read-out: Solubility, 5% DMSO + 95% H2O
[12] = organic solvent or mixture, acetone, n = 3, read-out: Solubility, Acetone
[13] = organic solvent or mixture, methanol, n = 3, read-out: Solubility, Methanol
[14] = mice, single ig., high and low doses (BFA effective amount conversion)
[15] = mice, single ig., high and low doses (BFA effective amount conversion), within 72 h
[16] = Sprague-Dawley, rat, in vivo, 30 mg/kg
[17] = SD rats, 20 mg/kg, blood concentration of BFA

Compound | solubility at 24 h [1, 11] [mg/mL] | solubility at 24 h [1, 12] [mg/mL] | solubility at 24 h [1, 13] [mg/mL] | IC50 ([2]; Homo sapiens) [nM] | IC50 ([3]; Homo sapiens) [nM] | IC50 ([4]; Homo sapiens) [nM] | IC50 ([5]; Homo sapiens) [nM] | IC50 ([6]; Homo sapiens) [nM] | IC50 ([7]; Homo sapiens) [nM] | IC50 ([8]; Homo sapiens) [nM] | IC50 ([9]; Homo sapiens) [nM] | Mental condition after administration (Kunming breed mice; [14]) | Death within 72 h (Kunming breed mice; [15]) | also measured
C[C@H]1CCC/C=C/[C@@H]2C[C@H](OC(=O)OCc3cnc4ccccc4c3)C[C@H]2[C@H](O)/C=C/C(=O)O1 [Compound 11, BFA-7-(quinoline-3-ylmethyl)carbonate] | 2.65 ± 1.8 | 67.6 ± 2.74 (≈ 145 mM) | 69.3 ± 4.35 (≈ 149 mM) | < 100 | < 100 | 100 to 1000 | 100 to 1000 | 100 to 1000 | 100 to 1000 | 100 to 1000 | 100 to 1000 | good mental conditions | no death | 
COc1ccc(COC(=O)O[C@@H]2C[C@H]3[C@H](O)/C=C/C(=O)O[C@@H](C)CCC/C=C/[C@@H]3C2)cn1 [Compound 6] | 2.95 ± 1.61 | 70.6 ± 1.44 (≈ 158 mM) | 70.4 ± 3.35 (≈ 158 mM) | 100 to 1000 | 100 to 1000 | < 100 | 100 to 1000 | < 100 | 100 to 1000 | 100 to 1000 | 100 to 1000 | good mental conditions | no death | 
C[C@H]1CCC/C=C/[C@@H]2C[C@H](OC(=O)OCc3cccnc3)C[C@H]2[C@H](O)/C=C/C(=O)O1 [Compound 1, BFA-7-(pyridine-3-ylmethyl)carbonate] | 2.73 ± 0.21 | 68.7 ± 2.53 (≈ 165 mM) | 74.3 ± 2.52 (≈ 179 mM) | < 100 | 100 to 1000 | < 100 | 100 to 1000 | < 100 | < 100 | 100 to 1000 | 100 to 1000 | good mental conditions |  | AUCINF [10, 16]: 5763.29 ng·h/mL; AUClast [10, 16]: 5766.31 ng·h/mL; Cmax [10, 16]: 7192.20 ng/mL; MRTINF [10, 16]: 11.4 min; T1/2 [10, 16]: 15 min; Tmax [10, 16]: 15 min; Death within 72 h (Kunming breed mice; mouse, in vivo): no death
C[C@H]1CCC/C=C/[C@@H]2C[C@H](O)C[C@H]2[C@H](O)/C=C/C(=O)O1 [BFA, Brefeldin A] |  |  |  |  |  |  |  |  |  |  |  |  |  | AUCINF [10, 17]: 4448.31 ng·h/mL; AUClast [10, 17]: 4450.24 ng·h/mL; Cmax [10, 17]: 5744.26 ng/mL; MRTINF [10, 17]: 11.4 min; T1/2 [10, 17]: 25.2 min; Tmax [10, 17]: 15 min; Solubility, 5% DMSO + 95% H2O ([1]; 5% DMSO + 95% H2O, n = 3): 0.085 ± 0.03 mg/mL; Solubility, Acetone ([1]; acetone, n = 3): 3.13 ± 1.24 mg/mL (≈ 11.2 mM); Solubility, Methanol ([1]; methanol, n = 3): 3.13 ± 1.24 mg/mL (≈ 11.2 mM); IC50 [2]: 100 to 1000 nM; IC50 [3]: < 100 nM; IC50 [4]: 100 to 1000 nM; IC50 [5]: 100 to 1000 nM; IC50 [6]: 100 to 1000 nM; IC50 [7]: 100 to 1000 nM; IC50 [8]: < 100 nM; IC50 [9]: 100 to 1000 nM; Mortality within 24 h (Kunming breed mice; mice, single ig., high dose 1000 mg/kg, within 24 h): all animals died; Animals died within 72 h (Kunming breed mice; mice, single ig., low dose 750 mg/kg, within 72 h): ⅔
